Read-outs that look alike come from different tables or passages of the source. Values belong to the compound of their own block, whether it stands above or below them.
Assays:
[1] = molecular target: recombinant human Mcl-1 (residues 171-327) / Bim interaction (Homo sapiens (Human), UniProt Q07820); assay: biochemical; format: binding
[2] = tested on: human multiple myeloma cell line, OPM-2; assay: Cell viability assay (OPM-2 10 FBS), CellTiter-Glo; format: cell-based
How it was run: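 IC50 values come from 4-parameter logistic fits of luminescence signals reflecting cell viability. Treatment lasted 16 h at 37 °C in complete medium with 10% FBS, starting from 3000 cells/well.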

[3] = 0.1 nM Mcl-1(171-327), 0.05 nM biotin-Bim (51-76), read-out: Mcl-1 HTRF IC50
[4] = TR-FRET, Mcl-1(171-327) / biotin-Bim (51-76), read-out: Mcl-1 HTRF IC50
[5] = Homo sapiens, OPM-2, 16 h, read-out: OPM-2 10% FBS IC50 IP, OPM-2 cells, 10% FBS, 16 h incubation

recombinant human Mcl-1 (residues 171-327) / Bim interaction, sequence (Q07820 171-327): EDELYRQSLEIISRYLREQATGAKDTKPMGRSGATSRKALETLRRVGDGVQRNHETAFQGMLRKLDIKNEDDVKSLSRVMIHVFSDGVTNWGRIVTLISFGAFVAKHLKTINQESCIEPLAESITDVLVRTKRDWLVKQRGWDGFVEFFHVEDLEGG

Compound: C[C@@H]1CS(=O)(=O)NC(=O)c2ccc3c(c2)N(C[C@@H]2CC[C@H]2[C@](O)(CN2CCN4CCOC[C@@H]4C2)CC[C@@H]1C)C[C@@]1(CCCc2cc(Cl)ccc21)CO3 [Example 405, (1S,3′R,6′R,7′S,10′S,11′S)-6-chloro-7′-((9aS)-hexahydropyrazino[2,1-c][1,4]oxazin-8(1H)-ylmethyl)-7′-hydroxy-10′,11′-dimethyl-3,4-dihydro-2H, 15′H-spiro[naphthalene-1,22′-[20]oxa[13]thia[1,14]diazatetracyclo[14.7.2.0-3,6˜.0˜19,24˜]pentacosa[16,18,24]trien]-15′-one 13′,13′-dioxide]
- IC50 [1, 3]: 0.057 nM

Compound: C[C@@]1(O)CCCCCS(=O)(=O)NC(=O)c2ccc3c(c2)N(C[C@@H]2CC[C@H]21)C[C@@]1(CCCc2cc(Cl)ccc21)CO3 [Example 100024, (1S,3′R,6′R,7′R)-6-chloro-7′-hydroxy-7′-methyl-3,4-dihydro-2H,15′H-spiro[naphthalene-1,22′-[20]oxa[13]thia[1,14]diazatetracyclo [14.7.2.0~3,6~.0~19,24~]pentacosa[16,18,24]trien]-15′-one 13′,13′-dioxide]
- IC50 [1, 4]: 6.16 nM

Compound: CC(C)N1CCO[C@]2(/C=C/C[C@H](C)[C@@H](C)S(=O)(=O)NC(=O)c3ccc4c(c3)N(C[C@@H]3CC[C@H]32)C[C@@]2(CCCc3cc(Cl)ccc32)CO4)C1 [Example 127, (1 S,3′R,6′R,7′S,8′E, 11′S,12′R)-6-chloro-11′,12′-dimethyl-4″-(1-methylethyl)-3,4-dihydro-2H,15′H-dispiro[naphthalene-1,22′-[20]oxa[13]thia[1,14]diazatetracyclo[14.7.2.0-3,6˜.0˜19,24˜]pentacosa[8,16,18,24]tetraene-7′,2″-[1,4]oxazinan]-15′-one 13′,13′-dioxide]
- IC50 [1, 3]: 0.395 nM

Compound: CO[C@]1(CO)/C=C/C[C@H](C)[C@@H](C)S(=O)(=O)NC(=O)c2ccc3c(c2)N(C[C@@H]2CC[C@H]21)C[C@@]1(CCCc2cc(Cl)ccc21)CO3 [Example 100312, (1S,3′R,6′R,7′R,8′E,11′S,12′R)-6-chloro-7′-(hydroxymethyl)-7′-methoxy-11′,12′-dimethyl-3,4-dihydro-2H,15′H-spiro[naphthalene-1,22′-[20]oxa[13]thia[1,14]diazatetracyclo [14.7.2.0~3,6~.0~19,24~]pentacosa[8,16,18,24]tetraen]-15′-one 13′,13′-dioxide]
- IC50 [1, 4]: 0.088 nM

Compound: C[C@H]1CC/C=C/[C@@](C)(O)[C@@H]2CC[C@H]2CN2C[C@@]3(CCCc4cc(Cl)ccc43)COc3ccc(cc32)C(=O)NS1(=O)=O [Example 100030, (1S,3′R,6′R,7′R,8′E,12′S)-6-chloro-7′-hydroxy-7′,12′-dimethyl-3,4-dihydro-2H,15′H-spiro[naphthalene-1,22′-[20]oxa[13]thia[1,14]diazatetracyclo [14.7.2.0~3,6~.0~19,24~]pentacosa[8,16,18,24]tetraen]-15′-one 13′,13′-dioxide]
- IC50 [1, 4]: 10.4 nM

Compound: C[C@@H]1[C@@H](C)C/C=C/[C@](O)(CS(=O)(=O)N(C)C)[C@@H]2CC[C@H]2CN2C[C@@]3(CCCc4cc(Cl)ccc43)COc3ccc(cc32)C(=O)NS1(=O)=O (single isomer, unassigned) [Example 100293]
- IC50 ([1]; Mcl-1 HTRF IC50): 0.522 nM

Compound: CC#C[C@]1(O)CCCCCS(=O)(=O)NC(=O)c2ccc3c(c2)N(C[C@@H]2CC[C@H]21)C[C@@]1(CCCc2cc(Cl)ccc21)CO3 [Example 100025, (1S,3′R,6′R,7′S)-6-chloro-7′-hydroxy-7′-(1-propyn-1-yl)-3,4-dihydro-2H,15′H-spiro[naphthalene-1,22′-[20]oxa[13]thia[1,14]diazatetracyclo [14.7.2.0~3,6~.0~19,24~]pentacosa[16,18,24]trien]-15′-one 13′,13′-dioxide]
- IC50 [1, 4]: 2.35 nM

Compound: C[C@@H]1[C@@H](C)C/C=C/[C@](O)(C#CCCCN2CCOCC2)[C@@H]2CC[C@H]2CN2C[C@@]3(CCCc4cc(Cl)ccc43)COc3ccc(cc32)C(=O)NS1(=O)=O [Example 100494, (1S,3′R,6′R,7′R,8′E,11′S,12′R)-6-chloro-7′-hydroxy-11′,12′-dimethyl-7′-(5-(4-morpholinyl)-1-pentyn-1-yl)-3,4-dihydro-2H,15′H-spiro[naphthalene-1,22′-[20]oxa[13]thia[1,14]diazatetracyclo [14.7.2.0~3,6~.0~19,24~]pentacosa[8,16,18,24]tetraen]-15′-one 13′,13′-dioxide]
- IC50 [1, 4]: 0.078 nM

Compound: N#C[C@]1(O)CCCCCS(=O)(=O)NC(=O)c2ccc3c(c2)N(C[C@@H]2CC[C@H]21)C[C@@]1(CCCc2cc(Cl)ccc21)CO3 [Example 100027, (1S,3′R,6′R,7′S)-6-chloro-7′-hydroxy-15′-oxo-3,4-dihydro-2H-spiro[naphthalene-1,22′-[20]oxa[13]thia[1,14]diazatetracyclo [14.7.2.0~3,6~.0~19,24~]pentacosa[16,18,24]triene]-7′-carbonitrile 13′,13′-dioxide]
- IC50 [1, 4]: 7.34 nM

Compound: C[C@H]1CCCC[C@](C)(O)[C@@H]2CC[C@H]2CN2C[C@@]3(CCCc4cc(Cl)ccc43)COc3ccc(cc32)C(=O)NS1(=O)=O [Example 100031, (1S,3′R,6′R,7′S,12′S)-6-chloro-7′-hydroxy-7′,12′-dimethyl-3,4-dihydro-2H,15′H-spiro[naphthalene-1,22′-[20]oxa[13]thia[1,14]diazatetracyclo [14.7.2.0~3,6~.0~19,24~]pentacosa[16,18,24]trien]-15′-one 13′,13′-dioxide]
- IC50 ([1]; read-out: Mcl-1 HTRF IC50): 7.45 nM

- IC50 [2, 5]: 1650 nM
Compound: C[C@@H]1[C@@H](C)C/C=C/[C@@](O)(CN2CCOC[C@@H]2Cn2ccnc2)[C@@H]2CC[C@H]2CN2C[C@@]3(CCCc4cc(Cl)ccc43)COc3ccc(cc32)C(=O)NS1(=O)=O [Example 100, (1 S,3′R,6′R,7′S,8′E,11′S, 12′R)-6-chloro-7′-hydroxy-7′-(((3S)-3-(1H-imidazol-1-ylmethyl)-4-morpholinyl)methyl)-11′,12′-dimethyl-3,4-dihydro-2H, 15′H-spiro[naphthalene-1,22′-[20]oxa[13]thia[1,14]diazatetracyclo[14.7.2.0-3,6˜.0˜19,24˜]pentacosa[8,16,18,24]tetraen]-15′-one 13′,13′-dioxide]

Compound: C[C@@H]1[C@@H](C)C/C=C/[C@@](O)(CN2CCN3CCOC[C@@H]3C2)[C@@H]2CC[C@H]2CN2C[C@@]3(CCCc4cc(Cl)ccc43)COc3ccc(cc32)C(=O)NS1(=O)=O [Example 193, (1S,3′R,6′R,7′S,8′E,11′S,12′R)-6-chloro-7′-((9aS)-hexahydropyrazino[2,1-c][1,4]oxazin-8(1H)-ylmethyl)-7′-hydroxy-11′,12′-dimethyl-3,4-dihydro-2H, 15′H-spiro[naphthalene-1,22′-[20]oxa[13]thia[1,14]diazatetracyclo[14.7.2.0-3,6˜.0˜19,24˜]pentacosa[8,16,18,24]tetraen]-15′-one 13′,13′-dioxide]
- IC50 ([2]; read-out: OPM-2 10% FBS IC50 IP, OPM-2 cells, 10% FBS, 16 h incubation): 23 nM

Compound: CCO[C@]1(CN2CCN3CCCC[C@@H]3C2)/C=C/C[C@H](C)[C@@H](CCOC)S(=O)(=O)NC(=O)c2ccc3c(c2)N(C[C@@H]2CC[C@H]21)C[C@@]1(CCCc2cc(Cl)ccc21)CO3 [Example 15, (1S,3′R,6′R,7′R,8′E,11′S,12′R)-6-chloro-7′-ethoxy-12′-(2-methoxyethyl)-11′-methyl-7′-((9aR)-octahydro-2H-pyrido[1,2-a]pyrazin-2-ylmethyl)-3,4-dihydro-2H,15′H-spiro[naphthalene-1,22′-[20]oxa[13]thia[1,14]diazatetracyclo[14.7.2.0-3,6˜.0˜19,24˜]pentacosa[8,16,18,24]tetraen]-15′-one 13′,13′-dioxide]
- IC50 [2, 5]: 71 nM
